Series [1] concerns desmoplastic ovarian tumour. The settings on record: mouse, in vivo; cited from earlier work.
Series [2] has as its target Bovine LOX (Bos taurus (Bovine), UniProt P33072). Put plainly: LOX inhibition, Amplex Red oxidation assay. The settings on record: 30 min preincubation at 37 °C, putrescine substrate. It is filed as biochemical. The procedure, abridged:
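Bovine LOX in 1.2 M urea, 50 mM sodium borate pH 8.2, with 1 μM mofegiline and 0.5 mM pargyline unless recombinant or purified. The added mix held putrescine at twice KM (20 mM for LOX), 120 μM Amplex Red and 1.5 U/mL HRP.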

Series [3] has as its target Recombinant human MAO-B (Homo sapiens (Human), UniProt P27338). Briefly: Inhibition of human recombinant MAO-B. It is filed as biochemical. The settings on record: benzylamine 100 μM. The method, then:
The specificity of the compounds of this invention was tested by determining their ability to inhibit MAO-B activities in vitro. Recombinant human MAO-B (0.06 mg/mL; Sigma Aldrich) was used as source of MAO-B enzyme activities. The assay was performed in a similar way as for human SSAO/VAP-1 (Example 28) except, the substrate benzylamine was used at 100 μM.

The target in series [4] is surgery induced systemic LOX (Mus musculus (Mouse), UniProt P28301). The settings on record: in vivo; cited from earlier work.
Series [5] deals with SiHa cervical cancer cells. The settings on record: cited from earlier work.
The conditions of series [6]: in vivo; cited from earlier work.
Series [7] addresses LOX (Rattus norvegicus (Rat), UniProt P16636). Conditions: CIA rats; cited from earlier work.
Series [8] concerns the target T1, LOXL2 (Homo sapiens (Human), UniProt Q9Y4K0). Briefly: LOXL2 inhibition, Amplex Red oxidation assay. The settings on record: 30 min preincubation at 37 °C, putrescine substrate. It is filed as biochemical. The essentials: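 LOXL2 in 1.2 M urea, 50 mM sodium borate pH 8.2 was preincubated with compound (11-point curve) for 30 min at 37 °C; mofegiline/pargyline were added only for non-purified enzyme. Reaction mix held 2× KM putrescine (10 mM), 120 μM Amplex Red and 1.5 U/mL HRP. H2O2 fluorescence (ex 565/em 590 nm) was read over 30 min, and IC50 came from slopes.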

In series [9] the target is Human recombinant SSAO/VAP-1 (Homo sapiens (Human), UniProt Q16853). Put plainly: Inhibition of human recombinant SSAO/VAP-1. It is filed as biochemical. The essentials: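 Purified enzyme (residues 34-763, expressed in CHO Lec8 cells; 0.25 μg/mL in 0.1 M sodium phosphate pH 7.4) was preincubated with compound 30 min at 37 °C. An added mix held 600 μM benzylamine, 120 μM Amplex Red and 1.5 U/mL HRP. Fluorescence (ex 565/em 590 nm) was read every 2.5 min for 30 min at 37 °C, and IC50 was derived from kinetic slopes over 4-11-point curves.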

Series [10] has as its system MMTV-PyMT breast cancer. The settings on record: in vivo; cited from earlier work.
The target of series [11] is LOXL1 (Homo sapiens (Human), UniProt Q08397). Put plainly: Jump dilution experiment, sustained inhibition of LOXL1.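 Note: 30× IC50 used only where needed so inhibitor exceeds enzyme concentration.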 Conditions: jump dilution after 40 min at 37 °C with 10× or 30× IC50; vs non-inhibited controls. It is filed as biochemical. The procedure:
(§1) Jump Dilution experiment: The assay was developed using a 96 well format and the starting enzyme concentration was set 100 times higher than for the inhibition studies. […] After the incubation, the mixture was diluted 50× in assay buffer, followed by a further 2× dilution in Amplex Red-horseradish peroxidase-putrescine reaction mix (same as per the inhibition studies) prior to the fluorescent measurement. Results were expressed in % recovery of the signal after a specified time by comparison with non-inhibited controls.

Series [12] addresses T1, LOXL2. Put plainly: Jump dilution experiment, sustained inhibition of LOXL2.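 Note: 30× IC50 used only where needed so inhibitor exceeds enzyme concentration.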 It is filed as biochemical. Conditions: jump dilution after 40 min at 37 °C with 10× or 30× IC50; vs non-inhibited controls. The method, then:
as §1

For series [13], the system named is GATA1low mice. Briefly: Mouse model of primary myelofibrosis. It is filed as in vivo. Conditions: 15 mg/kg i.p. four times a week for 10 weeks. The method, then: Fifteen to sixteen week old GATA1low male and female mice were intra-peritoneal injected with either vehicle (olive oil), or Compound 19 at a dose of 15 mg/kg, four times a week for 10 weeks. The mice were then sacrificed and the spleens and femurs were harvested for histology and analysis (FIGS. 7(a-e) and FIGS. 8(a-d)).

Series [14] concerns the target rhSSAO (Homo sapiens (Human), UniProt Q16853). Put plainly: Measurement of substrate turnover by SSAO. Type of series: biochemical. Conditions: compound 2.5 mM, relative to background (dimethyl sulfoxide only). The method, then: In brief, the assay employed determines the substrate propensity of a compound relative to background (dimethyl sulfoxide only). Compound oxidation by rhSSAO was measured by fluorometric assay (Holt and Palcic, 2006). Briefly, rhSSAO was incubated for 2 hours at 37° C. in HEPES buffer before the addition of an equal volume of Amplex Red ([…]), horseradish peroxidase (4 U/ml), and Compound (2.5 mM) in the same buffer. The kinetics of the formation of resorufin was measured immediately using Optima reader (BMG Labtech GmbH, Ortenburg, Germany), at 37° C.

[15] abbreviates: 30 min preincubation at 37 °C, benzylamine 600 μM, read-out: SSAO/VAP-1 Activity IC50.

Counter-ions that a name gives are not always drawn. Like-named read-outs stand apart in the source and are kept apart here. Bounds are passed on as bounds.

Chain of Recombinant human MAO-B (P27338 whole entry): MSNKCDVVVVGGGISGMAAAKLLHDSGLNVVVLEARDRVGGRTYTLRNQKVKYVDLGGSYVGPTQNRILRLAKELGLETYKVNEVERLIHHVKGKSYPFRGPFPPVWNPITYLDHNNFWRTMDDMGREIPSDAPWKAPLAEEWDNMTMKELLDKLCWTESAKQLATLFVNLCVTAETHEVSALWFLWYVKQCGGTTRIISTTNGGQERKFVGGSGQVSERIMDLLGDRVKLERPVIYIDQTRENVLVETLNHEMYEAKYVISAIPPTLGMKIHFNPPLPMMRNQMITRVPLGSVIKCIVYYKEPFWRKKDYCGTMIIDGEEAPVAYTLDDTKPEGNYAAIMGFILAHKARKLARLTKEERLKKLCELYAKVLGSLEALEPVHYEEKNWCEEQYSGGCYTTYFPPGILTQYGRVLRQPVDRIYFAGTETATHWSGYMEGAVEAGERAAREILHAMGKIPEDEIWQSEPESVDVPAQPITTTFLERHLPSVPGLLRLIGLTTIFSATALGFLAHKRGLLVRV
Chain of LOXL1 (Q08397 96-574, species assumed): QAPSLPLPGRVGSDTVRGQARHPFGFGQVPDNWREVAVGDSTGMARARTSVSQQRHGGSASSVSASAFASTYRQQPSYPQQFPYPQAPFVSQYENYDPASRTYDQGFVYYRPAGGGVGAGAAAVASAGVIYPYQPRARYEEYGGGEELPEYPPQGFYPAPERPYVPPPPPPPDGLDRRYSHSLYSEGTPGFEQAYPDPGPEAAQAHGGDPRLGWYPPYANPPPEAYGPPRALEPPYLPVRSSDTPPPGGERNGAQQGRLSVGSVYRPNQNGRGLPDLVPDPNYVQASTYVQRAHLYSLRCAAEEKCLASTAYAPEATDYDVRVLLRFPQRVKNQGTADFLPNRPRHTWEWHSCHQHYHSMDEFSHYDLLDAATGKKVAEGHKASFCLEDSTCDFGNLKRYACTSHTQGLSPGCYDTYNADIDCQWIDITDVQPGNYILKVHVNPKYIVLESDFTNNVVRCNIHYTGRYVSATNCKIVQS
T1 sequence (Q9Y4K0 26-774): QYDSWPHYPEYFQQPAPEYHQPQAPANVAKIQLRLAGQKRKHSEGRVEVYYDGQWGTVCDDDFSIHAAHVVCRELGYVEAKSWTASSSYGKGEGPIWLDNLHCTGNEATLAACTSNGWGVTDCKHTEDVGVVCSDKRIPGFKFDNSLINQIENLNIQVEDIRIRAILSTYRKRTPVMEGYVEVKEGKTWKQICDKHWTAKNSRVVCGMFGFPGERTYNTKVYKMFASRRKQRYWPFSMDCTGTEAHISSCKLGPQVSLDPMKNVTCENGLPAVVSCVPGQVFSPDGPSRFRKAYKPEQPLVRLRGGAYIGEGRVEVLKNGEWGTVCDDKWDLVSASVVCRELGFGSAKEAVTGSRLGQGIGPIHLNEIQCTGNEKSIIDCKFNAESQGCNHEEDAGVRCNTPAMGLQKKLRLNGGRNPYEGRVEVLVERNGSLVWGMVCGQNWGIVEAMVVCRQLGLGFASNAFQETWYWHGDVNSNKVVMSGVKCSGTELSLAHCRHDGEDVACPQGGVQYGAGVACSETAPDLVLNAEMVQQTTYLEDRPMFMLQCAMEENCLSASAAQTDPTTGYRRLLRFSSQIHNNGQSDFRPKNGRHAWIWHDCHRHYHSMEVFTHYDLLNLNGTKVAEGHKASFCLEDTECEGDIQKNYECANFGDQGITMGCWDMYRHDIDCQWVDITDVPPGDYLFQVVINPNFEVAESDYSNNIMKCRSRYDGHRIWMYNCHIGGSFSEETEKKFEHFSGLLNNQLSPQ
Chain of Bovine LOX (P33072 170-418): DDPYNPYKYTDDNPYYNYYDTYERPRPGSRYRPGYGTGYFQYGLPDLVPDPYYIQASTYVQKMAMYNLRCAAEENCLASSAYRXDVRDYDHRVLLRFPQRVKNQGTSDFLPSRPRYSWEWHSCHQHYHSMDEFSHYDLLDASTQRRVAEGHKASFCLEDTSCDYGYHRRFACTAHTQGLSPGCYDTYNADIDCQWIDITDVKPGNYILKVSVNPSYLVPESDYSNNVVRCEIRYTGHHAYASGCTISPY
Chain of Human recombinant SSAO/VAP-1 (Q16853 34-763): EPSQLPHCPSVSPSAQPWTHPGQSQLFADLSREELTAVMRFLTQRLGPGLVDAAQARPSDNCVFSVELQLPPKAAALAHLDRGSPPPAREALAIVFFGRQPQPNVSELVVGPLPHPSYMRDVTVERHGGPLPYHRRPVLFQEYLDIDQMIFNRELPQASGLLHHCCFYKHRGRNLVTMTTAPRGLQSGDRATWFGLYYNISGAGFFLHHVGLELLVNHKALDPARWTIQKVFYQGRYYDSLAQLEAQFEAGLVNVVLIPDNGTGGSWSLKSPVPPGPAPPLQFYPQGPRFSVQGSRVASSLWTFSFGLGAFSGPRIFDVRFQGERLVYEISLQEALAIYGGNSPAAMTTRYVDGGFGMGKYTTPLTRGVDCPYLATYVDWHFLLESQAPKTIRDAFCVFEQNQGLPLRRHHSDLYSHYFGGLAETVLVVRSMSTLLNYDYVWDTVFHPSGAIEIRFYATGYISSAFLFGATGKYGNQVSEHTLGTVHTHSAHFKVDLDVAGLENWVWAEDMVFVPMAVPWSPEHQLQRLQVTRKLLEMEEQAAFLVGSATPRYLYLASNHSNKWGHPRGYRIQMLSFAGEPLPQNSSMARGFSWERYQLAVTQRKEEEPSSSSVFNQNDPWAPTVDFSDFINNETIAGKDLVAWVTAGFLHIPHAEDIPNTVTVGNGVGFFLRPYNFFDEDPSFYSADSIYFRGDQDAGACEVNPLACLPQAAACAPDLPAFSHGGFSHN
Chain of LOX (P16636 163-411): as the sequence (P33072 170-418) above, with T10S, P27S, Y31H, A64S, X84A, N188A, K202Q counted along it
Chain of rhSSAO (Q16853 whole entry): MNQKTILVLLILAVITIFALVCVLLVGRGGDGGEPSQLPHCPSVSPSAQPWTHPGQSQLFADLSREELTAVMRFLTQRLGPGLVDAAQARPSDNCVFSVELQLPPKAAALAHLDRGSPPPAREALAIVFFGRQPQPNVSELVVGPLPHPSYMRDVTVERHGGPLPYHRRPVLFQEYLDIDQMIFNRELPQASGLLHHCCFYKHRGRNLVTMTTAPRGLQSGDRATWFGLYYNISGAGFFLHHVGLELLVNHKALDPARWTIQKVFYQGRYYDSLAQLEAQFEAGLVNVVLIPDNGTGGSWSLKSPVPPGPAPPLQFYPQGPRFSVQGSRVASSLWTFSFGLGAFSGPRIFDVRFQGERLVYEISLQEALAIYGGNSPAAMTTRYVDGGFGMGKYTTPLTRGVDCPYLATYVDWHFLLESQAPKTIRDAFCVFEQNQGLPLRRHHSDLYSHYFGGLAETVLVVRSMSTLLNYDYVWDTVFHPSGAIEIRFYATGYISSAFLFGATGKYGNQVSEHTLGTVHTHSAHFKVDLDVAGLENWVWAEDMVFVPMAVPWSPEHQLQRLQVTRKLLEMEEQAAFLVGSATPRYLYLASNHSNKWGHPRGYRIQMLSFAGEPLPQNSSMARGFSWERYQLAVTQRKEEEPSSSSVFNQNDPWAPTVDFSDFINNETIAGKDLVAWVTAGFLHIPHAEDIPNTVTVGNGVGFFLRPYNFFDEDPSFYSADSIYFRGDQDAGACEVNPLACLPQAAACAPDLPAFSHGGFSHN
Chain of surgery induced systemic LOX (P28301 163-411): as the sequence (P33072 170-418) above, with T10S, Y31N, A64S, X84A, S142N, N188A, K202Q, S224T, E231D counted along it

As to `N#CCCN` [BAPN, β-aminopropionitrile], the lung metastasis entry in series [1] is “decreased”. In addition, the survival result in [1] is recorded as “significantly increased”. In addition, the IC50 in [2] is under 10 µM; in series [3], over 30 µM; in series [8] it was under 1 µM; in series [9] (setting [15]), over 30 µM. The “metastasis and survival after surgery induced systemic LOX” value in series [4] was “reducing metastasis and increasing survival”. In addition, the “increased invasion in vitro under hypoxic/anoxic conditions” value in series [5] is “repressed”. In series [6], the “tolerability in human patients with scleroderma” value is listed as “poorly tolerated”. Further, the “inflammation, synovial hyperplasia, angiogenesis and expression of MMP-2 and MMP-9” value in series [7] is on record as “attenuate”.

`CS(=O)(=O)c1cc(-c2ccccc2)cc(S(=O)(=O)c2ccc(CN)s2)c1` [CCT365623]: in [10], the metastasis and survival entry is “reduce metastasis and increase survival”.

For the compound `CN(C)S(=O)(=O)c1ccc(COc2cccc(S(=O)(=O)C/C(F)=C/CN)c2)cc1` [Compound 9, (Z)-4-((3-((4-amino-2-fluorobut-2-en-1-yl)sulfonyl)phenoxy)methyl)-N,N-dimethylbenzenesulfonamide hydrochloride], the “LOXL1 - Recovery of activity. (%)” value in series [11] came out at 4.4%. In addition, in [12], the “LOXL2 - Recovery of activity. (%)” value came to 15.1%. The IC50 is under 1 µM in series [2], under 10 µM in [3], under 1 µM in [8] and over 30 µM in [9] (setting [15]).

On to `NC/C=C(\F)CS(=O)(=O)c1ccccc1C(=O)NC12CC3CC(CC(C3)C1)C2` [Compound 12, N-(adamantan-1-yl)-2-(((Z)-4-amino-2-fluorobut-2-en-1-yl)sulfonyl)benzamide hydrochloride], for which, in series [11], the “LOXL1 - Recovery of activity. (%)” value is reported as 2.6%. The “LOXL2 - Recovery of activity. (%)” value in [12] was determined as 9.3%. Further, the IC50 was under 10 µM in series [2], over 30 µM in series [3], under 1 µM in [8] and over 30 µM in series [9] (setting [15]).

`NC/C=C(\F)CS(=O)(=O)c1cccc(C(=O)NC23CC4CC(CC(C4)C2)C3)c1` [Compound 13, N-(adamantan-1-yl)-3-(((Z)-4-amino-2-fluorobut-2-en-1-yl)sulfonyl)benzamide hydrochloride]: in [11], the “LOXL1 - Recovery of activity. (%)” value is on record as 3.5%. Besides, in series [12], the “LOXL2 - Recovery of activity. (%)” value came out at 8.9%. Moreover, the IC50 is under 10 µM in series [2], under 10 µM in [3], under 10 µM in series [8] and over 30 µM in series [9] (setting [15]).

In the case of `NC/C=C(\F)CS(=O)(=O)c1ccccc1Cl` [Compound 19, (Z)-4-(2-chlorophenylsulfonyl)-3-fluorobut-2-en-1-amine hydrochloride], the “LOXL1 - Recovery of activity. (%)” value in [11] was 7.8%. The “Bone marrow (BM) and splenic fibrosis” value in series [13] (vs vehicle) is on record as “significantly decreased”. In [13] (p<0.001 vs vehicle), the “Morphologic BM megakaryocytes (MKs) on H&E stain” value is on record as 24.65±0.6 per 20× field. The same compound gave a platelet count post-treatment in series [13] (p<0.05 vs vehicle) of 77.5±4.4 K/uL. Also, the “spleen weights adjusted to body weight” value in series [13] (p<0.05 vs vehicle) stood at 242.25 ± 18 mg. The “LOXL2 - Recovery of activity. (%)” value in series [12] stood at 7.9%. The IC50 in [2] is under 10 µM; in [3] it was over 30 µM; in [8] it was under 1 µM; in series [9] (setting [15]), over 30 µM.

As to `NC/C=C(\F)CS(=O)(=O)c1cccnc1` [Compound 31, (Z)-3-fluoro-4-(pyridin-3-ylsulfonyl)but-2-en-1-amine dihydrochloride], the “Substrate activity for rhSSAO” value in series [14] was “no significant turnover”. Besides, the “LOXL1 - Recovery of activity. (%)” value in series [11] came to 8.2%. The IC50 in [2] was under 10 µM; in series [8] it was under 1 µM; in series [9] (setting [15]), over 30 µM; in [9] (second Table 6 (Example 38), read-out: Recombinant human SSAO (rhSSAO) inhibition (IC50)) it was 27 µM.

Values taken from US12178791B2, “Haloallylamine sulfone derivative inhibitors of lysyl oxidases and uses thereof” (Syntara Limited, priority 2018, dated 2024).
